System: skin
Experiment: Skin permeation of UV filters and active agents after topical application
Conditions: from Compositions 27 to 31, topically applied

skin permeation of cosmetically acceptable active agents: permeated the skin
SMILES: NC(=O)c1cccnc1 [niacinamide]

From patent publication US20240407991A1, “LOW PENETRATION SUNSCREEN COMPOSITIONS” (Johnson & Johnson Consumer Inc., priority 2023, published 2024)
